Measured values reported in US12698141B2, “Methods for extracting and encapsulating phenolics from food waste, related compositions, and related articles” (BOARD OF TRUSTEES OF MICHIGAN STATE UNIVERSITY, priority 2019, dated 2026).

Experiment: Release of quercetin in PBS solution from electrospun PLLA scaffold (spectrophotometer)
Format: physicochemical
Details: all three samples (quercetin:PLLA 1:16, 1:8, 1:4)
Protocol: Materials and Methods: For fabrication of the scaffolds, an electrospinning apparatus consisting of a high voltage power supply (PCM series, Spellman, NY, USA) was used for charging the polymer solution, a grounded aluminum roto-translating drum (4 mm outer diameter and 13 cm in length) was used for collecting fibers, and a syringe pump (KDS-100, KD Scientific, Holliston, MA, USA) was used for controlling feed flow rate. Rotation was at 750 rpm and translation velocity at 1000 mm/min. The fluid was pushed out from the syringe with a flow rate of 1.1 mL/h, throughout a 0.25 mm diameter needle with a potential difference of 17 kV. All the samples were obtained using about 1.5 mL of initial solution. The polymer solution was prepared with Poly (L-lactide), PLLA, in 1,1,1,3,3,3-Hexafluoro-2-propanol (HFP) 20% (w/v). Three different volumes of quercetin dihydrate in ethanol (5.5 mg/mL) were added to obtain three different quercetin/polymer ratio: 1:4, 1:8, 1:16. […] The mechanical properties of the scaffolds were measured using uniaxial tensile test. The release of quercetin in PBS solution from the scaffold was measured using spectrophotometer at different times up to 75 days. Growth inhibition activity of quercetin against Escherichia coli and Saccharomyces cerevisiae was also assessed.

O=c1c(O)c(-c2ccc(O)c(O)c2)oc2cc(O)cc(O)c12 [quercetin]
amount of quercetin released (after 75 days of incubation at 4° C.): 50% | amount of quercetin released (after 75 days of incubation at 20° C.): 50%
